This experiment has as its target PARP7 (Homo sapiens (Human), UniProt Q7Z3E1). The experiment in a line: Enzymatic assay for inhibition of PARP7: TR-FRET displacement of biotinylated Probe A from the TIPARP active site. The class given is binding. Particulars: Table A-1. The method, then: 20 nL of a dose response curve of each test compound was spotted in black 384-well polystyrene proxiplates (Perkin Elmer) using a Mosquito (TTP Labtech). […] Reactions were incubated at 25° C. for an additional 30 min, then read on an Envision platereader equipped with a LANCE/DELFIA top mirror (Perkin Elmer) using excitation of 320 nm and emission of 615 nm and […] with a 90 μs delay. The ratio of the 665/615 nm emission were calculated for each well to determine the amount of complex of TIPARP and Probe A in each well. […] The Hill Coefficient is normally allowed to float but may also be fixed at 1 in a 3-parameter fit. Y is the % inhibition and x is the compound concentration.
A general note: Time-resolved FRET reads energy transfer from a long-lived donor to a nearby acceptor.

Chain of PARP7 (Q7Z3E1 whole entry): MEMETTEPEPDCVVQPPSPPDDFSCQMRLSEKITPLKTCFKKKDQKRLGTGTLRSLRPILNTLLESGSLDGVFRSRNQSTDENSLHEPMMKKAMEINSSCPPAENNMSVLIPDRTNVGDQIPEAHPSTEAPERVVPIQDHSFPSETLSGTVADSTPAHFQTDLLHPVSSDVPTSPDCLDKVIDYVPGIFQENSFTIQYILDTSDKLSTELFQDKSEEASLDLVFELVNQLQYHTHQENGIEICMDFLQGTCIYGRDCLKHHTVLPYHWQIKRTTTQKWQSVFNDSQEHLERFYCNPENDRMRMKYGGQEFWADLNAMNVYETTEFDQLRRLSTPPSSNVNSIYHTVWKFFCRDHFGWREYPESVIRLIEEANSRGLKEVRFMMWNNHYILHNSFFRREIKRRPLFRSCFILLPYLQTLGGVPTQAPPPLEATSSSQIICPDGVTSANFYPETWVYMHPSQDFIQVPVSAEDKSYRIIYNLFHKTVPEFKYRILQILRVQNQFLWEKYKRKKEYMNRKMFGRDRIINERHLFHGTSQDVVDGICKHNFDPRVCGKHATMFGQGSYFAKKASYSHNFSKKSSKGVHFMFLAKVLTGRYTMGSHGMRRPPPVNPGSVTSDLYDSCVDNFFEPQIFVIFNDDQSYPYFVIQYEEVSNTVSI

As a reminder, the IC50 is the concentration at which inhibition is half-maximal. Lower therefore signals inhibition by little substance. Compound `C[C@H](COCCC(=O)N1CCN(c2ncc(C(F)(F)F)cn2)CC1)Oc1cn[nH]c(=O)c1C(F)(F)F` (single isomer, unassigned) [Example 544 Isomer B] displayed an IC50 of 100 to 1000 nM. Next, `C[C@@H](COc1cn[nH]c(=O)c1C(F)(F)F)OCCC(=O)N1CCN(c2ncc(C(F)(F)F)cn2)CC1` (single isomer, unassigned) [Example 544 Isomer C]: below 100 nM. In the case of `C[C@H](COc1cn[nH]c(=O)c1C(F)(F)F)OCCC(=O)N1CCN(c2ncc(C(F)(F)F)cn2)CC1` (single isomer, unassigned) [Example 544 Isomer D], the IC50 was in the range of 100 to 1000 nM. `O=C(C[C@@H]1CC[C@@H](COc2cn[nH]c(=O)c2C(F)(F)F)O1)N1CCN(c2ccc(C(F)(F)F)cn2)CC1` (single isomer, unassigned) [Example 545 Isomer A]: the IC50 was 100 to 1000 nM.

As for `O=C(C[C@H]1CC[C@@H](COc2cn[nH]c(=O)c2C(F)(F)F)O1)N1CCN(c2ccc(C(F)(F)F)cn2)CC1` (single isomer, unassigned) [Example 545 Isomer B], the IC50 lay within 100 to 1000 nM.

In turn, `O=C(C[C@H]1CC[C@H](COc2cn[nH]c(=O)c2C(F)(F)F)O1)N1CCN(c2ccc(C(F)(F)F)cn2)CC1` (single isomer, unassigned) [Example 545 Isomer C] yielded an IC50 below 100 nM. Next, `O=C(C[C@@H]1CC[C@H](COc2cn[nH]c(=O)c2C(F)(F)F)O1)N1CCN(c2ccc(C(F)(F)F)cn2)CC1` (single isomer, unassigned) [Example 545 Isomer D]: below 100 nM; `O=C(C[C@@H]1CC[C@@H](CNc2cn[nH]c(=O)c2C(F)(F)F)O1)N1CCN(c2ccc(C(F)(F)F)cn2)CC1` (single isomer, unassigned) [Example 546 Isomer A]: below 100 nM. Regarding `O=C(C[C@H]1CC[C@H](CNc2cn[nH]c(=O)c2C(F)(F)F)O1)N1CCN(c2ccc(C(F)(F)F)cn2)CC1` (single isomer, unassigned) [Example 546 Isomer B], the IC50 is below 100 nM. `O=C(C[C@H]1CC[C@@H](CNc2cn[nH]c(=O)c2C(F)(F)F)O1)N1CCN(c2ccc(C(F)(F)F)cn2)CC1` (single isomer, unassigned) [Example 546 Isomer C] had an IC50 below 100 nM.

For the compound `O=C(C[C@@H]1CC[C@H](CNc2cn[nH]c(=O)c2C(F)(F)F)O1)N1CCN(c2ccc(C(F)(F)F)cn2)CC1` (single isomer, unassigned) [Example 546 Isomer D], the IC50 was below 100 nM. Next, `O=C(C[C@@H]1CC[C@@H](COc2cn[nH]c(=O)c2C(F)(F)F)O1)N1CCN(c2ncc(Cl)cn2)CC1` (single isomer, unassigned) [Example 565 Isomer A]: 100 to 1000 nM. In the case of `O=C(C[C@H]1CC[C@H](COc2cn[nH]c(=O)c2C(F)(F)F)O1)N1CCN(c2ncc(Cl)cn2)CC1` (single isomer, unassigned) [Example 565 Isomer B], the IC50 lay within 100 to 1000 nM.

Compound `O=C(C[C@H]1CC[C@@H](COc2cn[nH]c(=O)c2C(F)(F)F)O1)N1CCN(c2ncc(Cl)cn2)CC1` (single isomer, unassigned) [Example 565 Isomer C] yielded an IC50 below 100 nM. As for `O=C(C[C@@H]1CC[C@H](COc2cn[nH]c(=O)c2C(F)(F)F)O1)N1CCN(c2ncc(Cl)cn2)CC1` (single isomer, unassigned) [Example 565 Isomer D], the IC50 is below 100 nM.

In turn, `O=C(C[C@@H]1CC[C@@H](COc2cn[nH]c(=O)c2Cl)O1)N1CCN(c2ncc(Cl)cn2)CC1` (single isomer, unassigned) [Example 566 Isomer A] gave an IC50 of at least 1000 nM.

`O=C(C[C@H]1CC[C@H](COc2cn[nH]c(=O)c2Cl)O1)N1CCN(c2ncc(Cl)cn2)CC1` (single isomer, unassigned) [Example 566 Isomer B] gave an IC50 of at least 1000 nM. Next, `O=C(C[C@H]1CC[C@@H](COc2cn[nH]c(=O)c2Cl)O1)N1CCN(c2ncc(Cl)cn2)CC1` (single isomer, unassigned) [Example 566 Isomer C]: 100 to 1000 nM. Next, `O=C(C[C@@H]1CC[C@H](COc2cn[nH]c(=O)c2Cl)O1)N1CCN(c2ncc(Cl)cn2)CC1` (single isomer, unassigned) [Example 566 Isomer D]: at least 1000 nM; `O=C(C[C@H]1CC[C@@H](CNc2cn[nH]c(=O)c2C(F)(F)F)O1)N1CCN(c2ncc(Cl)cn2)CC1` (single isomer, unassigned) [Example 567 Isomer A]: below 100 nM. Next, `O=C(C[C@@H]1CC[C@H](CNc2cn[nH]c(=O)c2C(F)(F)F)O1)N1CCN(c2ncc(Cl)cn2)CC1` (single isomer, unassigned) [Example 567 Isomer B]: below 100 nM.

The compound `O=C(C[C@@H]1CC[C@@H](CNc2cn[nH]c(=O)c2C(F)(F)F)O1)N1CCN(c2ncc(Cl)cn2)CC1` (single isomer, unassigned) [Example 567 Isomer C] displayed an IC50 below 100 nM. The result for `O=C(C[C@H]1CC[C@H](CNc2cn[nH]c(=O)c2C(F)(F)F)O1)N1CCN(c2ncc(Cl)cn2)CC1` (single isomer, unassigned) [Example 567 Isomer D] reads below 100 nM; that for `O=C(C[C@@H]1CC[C@@H](CNc2cn[nH]c(=O)c2C(F)(F)F)O1)N1CCN(c2ncc(C(F)(F)F)cn2)CC1` (single isomer, unassigned) [Example 568 Isomer A], below 100 nM; that for `O=C(C[C@H]1CC[C@H](CNc2cn[nH]c(=O)c2C(F)(F)F)O1)N1CCN(c2ncc(C(F)(F)F)cn2)CC1` (single isomer, unassigned) [Example 568 Isomer B], below 100 nM. In the case of `COC[C@@H](COCCC(=O)N1CCN(c2ncc(C(F)(F)F)cn2)CC1)Oc1cn[nH]c(=O)c1C(F)(F)F` (single isomer, unassigned) [Example 570 Isomer A], the IC50 is below 100 nM. The result for `COC[C@H](COCCC(=O)N1CCN(c2ncc(C(F)(F)F)cn2)CC1)Oc1cn[nH]c(=O)c1C(F)(F)F` (single isomer, unassigned) [Example 570 Isomer B] reads 100 to 1000 nM. `COC[C@H](CO[C@H](C)CC(=O)N1CCN(c2ccc(C#N)cn2)CC1)Oc1cn[nH]c(=O)c1C(F)(F)F` (single isomer, unassigned) [Example 571 Isomer A] yielded an IC50 below 100 nM. The result for `COC[C@@H](CO[C@@H](C)CC(=O)N1CCN(c2ccc(C#N)cn2)CC1)Oc1cn[nH]c(=O)c1C(F)(F)F` (single isomer, unassigned) [Example 571 Isomer B] reads 100 to 1000 nM; that for `COC[C@H](CO[C@H](C)CC(=O)N1CCN(c2ccc(C#N)cn2)CC1)Oc1cn[nH]c(=O)c1C(F)(F)F` (single isomer, unassigned) [Example 571 Isomer C], at least 1000 nM; that for `COC[C@@H](CO[C@H](C)CC(=O)N1CCN(c2ccc(C#N)cn2)CC1)Oc1cn[nH]c(=O)c1C(F)(F)F` (single isomer, unassigned) [Example 571 Isomer D], 100 to 1000 nM. As to `N#Cc1ccc(N2CCN(C(=O)CCO[C@H]3CCC[C@@H]3Oc3cn[nH]c(=O)c3C(F)(F)F)CC2)nc1` (single isomer, unassigned) [Example 572 Isomer A], the IC50 was below 100 nM. The result for `N#Cc1ccc(N2CCN(C(=O)CCO[C@@H]3CCC[C@H]3Oc3cn[nH]c(=O)c3C(F)(F)F)CC2)nc1` (single isomer, unassigned) [Example 572 Isomer B] reads 100 to 1000 nM. Compound `N#Cc1ccc(N2CCN(C(=O)CCO[C@@H](CO)COc3cn[nH]c(=O)c3C(F)(F)F)CC2)nc1` (single isomer, unassigned) [Example 573 Isomer A] registered an IC50 below 100 nM. Next, `N#Cc1ccc(N2CCN(C(=O)CCOC[C@@H](CO)Oc3cn[nH]c(=O)c3C(F)(F)F)CC2)nc1` (single isomer, unassigned) [Example 573 Isomer B]: below 100 nM. Next, `N#Cc1ccc(N2CCN(C(=O)CCOC[C@H](CO)Oc3cn[nH]c(=O)c3C(F)(F)F)CC2)nc1` (single isomer, unassigned) [Example 573 Isomer C]: below 100 nM.

The compound `N#Cc1ccc(N2CCN(C(=O)CCO[C@H](CO)COc3cn[nH]c(=O)c3C(F)(F)F)CC2)nc1` (single isomer, unassigned) [Example 573 Isomer D] registered an IC50 below 100 nM. The result for `O=C(C[C@@H]1CC[C@@H](COc2cn[nH]c(=O)c2C(F)(F)F)O1)N1CCN(c2ncc(C(F)(F)F)cn2)CC1` (single isomer, unassigned) [Example 574 Isomer A] reads 100 to 1000 nM; that for `O=C(C[C@H]1CC[C@H](COc2cn[nH]c(=O)c2C(F)(F)F)O1)N1CCN(c2ncc(C(F)(F)F)cn2)CC1` (single isomer, unassigned) [Example 574 Isomer B], 100 to 1000 nM. The result for `O=C(C[C@@H]1CC[C@@H](COc2cn[nH]c(=O)c2Cl)O1)N1CCN(c2ncc(C(F)(F)F)cn2)CC1` (single isomer, unassigned) [Example 575 Isomer A] reads at least 1000 nM; that for `O=C(C[C@H]1CC[C@H](COc2cn[nH]c(=O)c2Cl)O1)N1CCN(c2ncc(C(F)(F)F)cn2)CC1` (single isomer, unassigned) [Example 575 Isomer B], at least 1000 nM; that for `C[C@H](CC(=O)N1CCN(c2ccc(C#N)cn2)CC1)OC[C@H](C)Oc1cn[nH]c(=O)c1C(F)(F)F` (single isomer, unassigned) [Example 576 Isomer A], below 100 nM.

`C[C@@H](CC(=O)N1CCN(c2ccc(C#N)cn2)CC1)OC[C@H](C)Oc1cn[nH]c(=O)c1C(F)(F)F` (single isomer, unassigned) [Example 576 Isomer B] displayed an IC50 below 100 nM.

Compound `C[C@@H](COCCC(=O)N1CCN(c2ncc(Cl)cn2)CC1)Oc1cn[nH]c(=O)c1Cl` (single isomer, unassigned) [Example 577 Isomer A] yielded an IC50 below 100 nM.
